Measured values: US20260184707A1, “PHARMACEUTICAL COMPOUNDS FOR THE TREATMENT OF COMPLEMENT MEDIATED DISORDERS” (ALEXION PHARMACEUTICALS, INC., priority 2022, published 2026)

target: T1, Human complement C1s enzyme (Homo sapiens, UniProt P09871); test: Human C1s enzyme assay; format: biochemical; details: human complement C1s enzyme 1.16 nM, substrate Z-L-Lys-SBzl, A405; read-out: IC50 (Stars)
T1 construct: purified from human serum, Complement Technology, Inc; purchased Complement Technology, Inc; host or cells: human serum (plasma-derived native protein)
T1 sequence (P09871 438-688 limits assumed): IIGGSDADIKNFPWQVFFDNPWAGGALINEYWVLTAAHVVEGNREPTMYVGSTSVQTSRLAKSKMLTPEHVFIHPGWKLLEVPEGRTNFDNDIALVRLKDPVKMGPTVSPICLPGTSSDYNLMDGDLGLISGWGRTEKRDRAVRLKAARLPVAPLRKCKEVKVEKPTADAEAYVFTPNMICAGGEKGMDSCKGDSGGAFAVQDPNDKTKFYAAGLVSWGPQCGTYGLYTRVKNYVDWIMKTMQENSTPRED
T1 sequence (P09871 16-437 partner limits assumed): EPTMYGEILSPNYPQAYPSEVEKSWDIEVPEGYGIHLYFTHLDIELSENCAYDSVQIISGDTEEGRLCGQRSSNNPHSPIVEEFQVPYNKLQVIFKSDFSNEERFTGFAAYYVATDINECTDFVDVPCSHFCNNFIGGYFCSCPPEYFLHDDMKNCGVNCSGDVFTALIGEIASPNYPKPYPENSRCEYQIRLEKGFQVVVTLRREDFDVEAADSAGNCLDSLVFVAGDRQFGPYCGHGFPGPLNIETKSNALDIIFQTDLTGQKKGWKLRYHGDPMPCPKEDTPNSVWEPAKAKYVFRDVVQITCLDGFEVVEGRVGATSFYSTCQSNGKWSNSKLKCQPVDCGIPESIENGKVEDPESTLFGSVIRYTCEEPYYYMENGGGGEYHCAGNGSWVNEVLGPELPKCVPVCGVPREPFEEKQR
Method in brief: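 Thioesterase activity followed colorimetrically (DTNB, A405, 30-s reads) using 100 μM Z-L-Lys-SBzl substrate. Enzyme, human serum-derived C1s at 1.16 nM final, was incubated with test compound for 5 min, room temperature, pH 7.5 Tris buffer with 1 M NaCl. Rate-versus-concentration data fitted by nonlinear regression for IC50.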

Row | IC50 [nM] | Compound
1 | < 100 | O=C(Cn1c(-c2ccccc2)ncc(NC(=O)c2ccc(Oc3cccnc3)cc2)c1=O)NCc1cc2cnccc2[nH]1 [Compound 53, N-(1-(2-(((1H-pyrrolo[3,2-c]pyridin-2-yl)methyl)amino)-2-oxoethyl)-6-oxo-2-phenyl-1,6-dihydropyrimidin-5-yl)-4-(pyridin-3-yloxy)benzamide]
2 | < 100 | C[C@H](Nc1cnc(-c2cccnc2)n(CC(=O)NCc2cc3cnccc3[nH]2)c1=O)c1ccc2oc3ccccc3c2c1 [Compound 274, (S)-N-((1H-pyrrolo[3,2-c]pyr-idin-2-yl)methyl)-2-(5-((1-(dibenzo[b,d]furan-2-yl)ethyl)-amino)-6-oxo-2-(pyridin-3-yl)-pyrimidin-1(6H)-yl)acetamide]
3 | < 100 | O=C(Cn1c(-c2ccccc2)ncc(NC(=O)c2ccc(Oc3nccs3)cc2)c1=O)NCc1cc2cnccc2[nH]1 [Compound 94, N-(1-(2-(((1H-pyrrolo[3,2-c]pyridin-2-yl)methyl)amino)-2-oxoethyl)-6-oxo-2-phenyl-1,6-dihydropyrimidin-5-yl)-4-(thiazol-2-yloxy)benzamide]
4 | < 100 | O=C(Cn1c(-c2ccccc2)ncc(NCCNC(=O)c2ccc3oc4ccccc4c3c2)c1=O)NCc1cc2cnccc2[nH]1 [Compound 35, N-(2-((1-(2-(((1H-pyrrolo[3,2-c]pyridin-2-yl)methyl)amino)-2-oxoethyl)-6-oxo-2-phenyl-1,6-dihydropyrimidin-5-yl)amino)ethyl)dibenzo[b,d]furan-2-carboxamide]
5 | < 100 | C[C@@H](Nc1cnc(-c2cnn(C)c2)n(CC(=O)NCc2cc3cnccc3[nH]2)c1=O)c1ccc2oc3ccccc3c2c1 [Compound 328, (R)-N-((1H-pyrrolo[3,2-c]pyridin-2-yl)methyl)-2-(5-((1-(dibenzo[b,d]furan-2-yl)ethyl)-amino)-2-(1-methyl-1H-pyr-azol-4-yl)-6-oxopyrimidin-1(6H)-yl)acetamide]
6 | > 1000 | O=C(CN1C(=O)[C@H](NCCCc2ccccc2)CC[C@H]1c1ccccc1)NCc1cc2cnccc2[nH]1 [Compound 490, N-((1H-pyrrolo[3,2-c]pyridin-2-yl)methyl)-2-((3R,6S)-2-oxo-6-phenyl-3-((3-phenylpropyl)-amino)piperidin-1-yl)acetamide]
7 | < 100 | Cc1cnc(N[C@@H](C)c2ccc3oc4ccccc4c3c2)c(=O)n1CC(=O)NCc1cc2cnccc2[nH]1 [Compound 316, (S)-N-((1H-pyrrolo[3,2-c]pyridin-2-yl)methyl)-2-(3-((1-(dibenzo[b,d]furan-2-yl)ethyl)-amino)-6-methyl-2-oxopyrazin-1(2H)-yl)acetamide]
8 | < 100 | N#Cc1ccc(CCNc2cnc(-c3ccccc3)n(CC(=O)NCc3cc4cnccc4[nH]3)c2=O)cc1 [Compound 28, N-((1H-pyrrolo[3,2-c]pyridine-2-yl)methyl)-2-(5-((4-cyanophenethyl)amino)-6-oxo-2-phenylpyrimidin-1(6H)-yl)acetamide]
9 | < 100 | O=C(Cn1c(-c2ccc(Cl)cc2)ncc(NCc2ccc3oc4ccccc4c3c2)c1=O)NCc1cc2cnccc2[nH]1 [Compound 118, N-((1H-pyrrolo[3,2-c]pyridin-2-yl)methyl)-2-(2-(4-chloro-phenyl)-5-((dibenzo[b,d]furan-2-ylmethyl)amino)-6-oxopyr-imidin-1(6H)-yl)acetamide]
10 | < 100 | O=C(Cn1c(-c2ccccc2)ncc(NC(=O)c2ccc(-c3ccccc3F)cc2)c1=O)NCc1cc2cnccc2[nH]1 [Compound 214, N-(1-(2-(((1H-pyrrolo[3,2-c]pyridin-2-yl)methyl)amino)-2-oxoethyl)-6-oxo-2-phenyl-1,6-dihydropyrimidin-5-yl)-2′-fluoro-[1,1′-biphenyl]-4-carboxamide]
11 | < 100 | O=C(Cn1c(-c2ccccn2)ncc(NCc2ccc3oc4ccccc4c3c2)c1=O)NCc1cc2cnccc2[nH]1 [Compound 252, N-((1H-pyrrolo[3,2-c]pyridin-2-yl)methyl)-2-(5-((dibenzo [b,d]furan-2-ylmethyl)amino)-6-oxo-2-(pyridin-2-yl)pyrimi-din-1(6H)-yl)acetamide]
12 | > 1000 | C[C@@H](Nc1cnc(N2CC(F)C2)n(CC(=O)NCc2cc3cnccc3[nH]2)c1=O)c1ccc2oc3ccccc3c2c1 [Compound 368, (R)-N-((1H-pyrrolo[3,2-c]pyridin-2-yl)methyl)-2-(5-((1-(dibenzo[b,d]furan-2-yl)ethyl)-amino)-2-(3-fluoroazetidin-1-yl)-6-oxopyrimidin-1(6H)-yl)-acetamide]
13 | < 100 | C[C@H](Nc1cnc(N2CCn3c(nnc3C(F)(F)F)C2)n(CC(=O)NCc2cc3cnccc3[nH]2)c1=O)c1ccc2oc3ccccc3c2c1 [Compound 300, (S)—N-((1H-pyrrolo[3,2-c]pyridine-2-yl)methyl)-2-(5-((1-(dibenzo[b,d]furan-2-yl)ethyl)amino)-6-oxo-2-(3-(trifluoromethyl)-5,6-dihydro-[1,2,4]triazolo[4,3-a]pyrazin-7(8H)-yl)pyrimidin-1(6H)-yl)acetamide]
14 | < 100 | C[C@@H](Nc1cnc(N2CCCCC2)n(CC(=O)NCc2cc3cnccc3[nH]2)c1=O)c1nc(-c2ccccc2)co1 [Compound 487, (R)—N-((1H-Pyrrolo[3,2-c]pyridine-2-yl)methyl)-2-(6-oxo-5-((1-(4-phenyloxazol-2-yl)ethyl)amino)-2-(piperidin-1-yl)pyrimidin-1(6H)-yl) acetamide]
15 | > 1000 | CC(C)[C@@H](Nc1cnc(-c2ccccc2F)n(CC(=O)NCc2cc3cnccc3[nH]2)c1=O)c1ccc2oc3ccccc3c2c1 [Compound 332, (R)—N-((1H-pyrrolo[3,2-c]pyridine-2-yl)methyl)-2-(5-((1-(dibenzo[b,d]furan-2-yl)-2-methylpropyl)amino)-2-(2-fluorophenyl)-6-oxopyrimidin-1(6H)-yl)acetamide]
16 | < 100 | Cc1cnc(CNc2cnc(-c3ccccc3)n(CC(=O)NCc3cc4cnccc4[nH]3)c2=O)o1 [Compound 455, N-((1H-pyrrolo[3,2-c]pyridin-2-yl)methyl)-2-(5-(((5-methyl-oxazol-2-yl)methyl)amino)-6-oxo-2-phenylpyrimidin-1(6H)-yl)acetamide]
17 | 100 to 1000 | C[C@@H](Nc1cnc(C2CCCC2)n(CC(=O)NCc2cc3cnccc3[nH]2)c1=O)c1coc(-c2ccccc2)n1 [Compound 476, (R)-N-((1H-pyrrolo[3,2-c]pyridin-2-yl)methyl)-2-(2-cyclopentyl-6-oxo-5-((1-(2-phenyloxazol-4-yl)ethyl)-amino)pyrimidin-1(6H)-yl)-acetamide]
